The NIST ThermoML archive (doi:10.1016/j.fluid.2005.12.016)

Test: osmotic coefficient (dimensionless); mn = molality of the nth substance listed, in mol/kg
Conditions: 298.15 K, 101 kPa, Liquid, isopiestic method

OCCC(O)CO (stereo not given) [1,2,4-butanetriol] + O
Conditions	osmotic coefficient
m1 = 0.7526	0.9857
m1 = 1.34	0.9912
m1 = 1.929	0.9968
m1 = 2.745	1.0059
m1 = 2.8	1.0065
m1 = 3.691	1.019
m1 = 5.916	1.062

CCC(O)CO (stereo not given) [1,2-butanediol] + O
Conditions	osmotic coefficient
m1 = 0.2302	0.9585
m1 = 0.803	0.9286
m1 = 0.8128	0.9282
m1 = 1.046	0.9205
m1 = 1.056	0.9202
m1 = 2.093	0.8967
m1 = 3.038	0.8831
m1 = 3.044	0.8831
m1 = 4.304	0.8709

CC(O)CCO (stereo not given) [1,3-butanediol] + O
Conditions	osmotic coefficient
m1 = 0.2289	0.9766
m1 = 0.7849	0.9509
m1 = 1.051	0.9416
m1 = 2.968	0.9042
m1 = 2.969	0.9042
m1 = 4.186	0.8953
m1 = 4.197	0.8953

OCCCCO [1,4-butanediol] + O
Conditions	osmotic coefficient
m1 = 0.2252	0.977
m1 = 0.778	0.9474
m1 = 0.7931	0.9467
m1 = 1.054	0.9349
m1 = 2.148	0.892
m1 = 2.158	0.8916
m1 = 3.12	0.8619
m1 = 4.499	0.8341
m1 = 4.501	0.8341

CC(O)C(C)O (stereo not given) [2,3-butanediol] + O
Conditions	osmotic coefficient
m1 = 0.6071	0.9429
m1 = 0.8087	0.9359
m1 = 1.995	0.913
m1 = 2.96	0.9043

OC[C@@H](O)[C@@H](O)CO [meso-1,2,3,4-butanetetrol] + O
Conditions	osmotic coefficient
m1 = 0.2173	1.0019
m1 = 0.2196	1.0019
m1 = 0.5657	1.011
m1 = 0.5662	1.011
m1 = 0.7365	1.014
m1 = 0.74	1.014
m1 = 0.9458	1.017
m1 = 1.113	1.019
m1 = 1.114	1.019
